Laboratory results reported in PubChem BioAssay AID1963832 (Molecular Pharmacology Branch, DTP, NCI, 2024).
pIC50: −log10 of the molar value.

System: 885724-159-R-J1-PDC complex spheroid viability
Test: Anticancer human tumor 885724-159-R-J1-PDC patient-derived pancreatic adenocarcinoma cell line growth inhibition [POLQ]
Details: for pIC50: curve of first compound; for viability, T/C: stronger effect = lower value
Procedure, shortened: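 Patient-derived tumour cells were co-cultured with HUVEC and mesenchymal stem cells as multicellular spheroids at 37 °C. They were treated with POLQ inhibitors (novobiocin, ART-558, RP6685) alone or combined with other agents. Top concentrations were at or near clinical Cmax (otherwise 10 microM; SN-38 at 1 microM), decreasing in half-log steps.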

[1] = second compound 0.0316 µM, first compound 0.0316 µM
[2] = second compound 0.0316 µM, first compound 0.1 µM
[3] = second compound 0.0316 µM, first compound 0.316 µM
[4] = second compound 0.0316 µM, first compound 1 µM
[5] = second compound 0.0316 µM, first compound 3.16 µM
[6] = second compound 0.0316 µM, first compound 10 µM
[7] = second compound 0.1 µM, first compound 0.0316 µM
[8] = second compound 0.1 µM, first compound 0.1 µM
[9] = second compound 0.1 µM, first compound 0.316 µM
[10] = second compound 0.1 µM, first compound 1 µM
[11] = second compound 0.1 µM, first compound 3.16 µM
[12] = second compound 0.1 µM, first compound 10 µM
[13] = second compound 0.316 µM, first compound 0.0316 µM
[14] = second compound 0.316 µM, first compound 0.1 µM
[15] = second compound 0.316 µM, first compound 0.316 µM
[16] = second compound 0.316 µM, first compound 1 µM
[17] = second compound 0.316 µM, first compound 3.16 µM
[18] = second compound 0.316 µM, first compound 10 µM
[19] = second compound 1 µM, first compound 0.0316 µM
[20] = second compound 1 µM, first compound 0.1 µM
[21] = second compound 1 µM, first compound 0.316 µM
[22] = second compound 1 µM, first compound 1 µM
[23] = second compound 1 µM, first compound 3.16 µM
[24] = second compound 1 µM, first compound 10 µM
[25] = second compound 3.16 µM, first compound 0.0316 µM
[26] = second compound 3.16 µM, first compound 0.1 µM
[27] = second compound 3.16 µM, first compound 0.316 µM
[28] = second compound 3.16 µM, first compound 1 µM
[29] = second compound 3.16 µM, first compound 3.16 µM
[30] = second compound 3.16 µM, first compound 10 µM
[31] = second compound 10 µM, first compound 0.0316 µM
[32] = second compound 10 µM, first compound 0.1 µM
[33] = second compound 10 µM, first compound 0.316 µM
[34] = second compound 10 µM, first compound 1 µM
[35] = second compound 10 µM, first compound 3.16 µM
[36] = second compound 10 µM, first compound 10 µM
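Further: spheroids exposed to compounds for 7 days.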

`CC(=O)O[C@H]1C(=O)[C@@]2(C)[C@H]([C@H](OC(=O)c3ccccc3)[C@]3(O)C[C@H](OC(=O)[C@H](O)[C@@H](NC(=O)c4ccccc4)c4ccccc4)C(C)=C1C3(C)C)[C@]1(OC(C)=O)CO[C@@H]1C[C@@H]2O` + Nc1ccc(C#CCN(C(=O)Cc2ncc(C(F)(F)F)cc2C(F)(F)F)c2ccc(F)cc2)nn1 gave a pIC50 (second compound 0.0316 µM) of under 5.52, a pIC50 (second compound 0.1 µM) of under 5.52 and a pIC50 (second compound 0.316 µM) of under 5.52. It also gave a pIC50 (second compound 1 µM) of under 5.52, a pIC50 (second compound 3.16 µM) of under 5.52 and a pIC50 (second compound 10 µM) of under 5.52. It also gave a viability, T/C (second compound 0.0316 µM, first compound 0.00949 µM) of 65.9%, a viability, T/C (second compound 0.0316 µM, first compound 0.03 µM) of 59.9% and a viability, T/C (second compound 0.0316 µM, first compound 0.0949 µM) of 56.6%. For the same compound, the viability, T/C (second compound 0.0316 µM, first compound 0.3 µM) was 64.7%, the viability, T/C (second compound 0.0316 µM, first compound 0.949 µM) was 62.5% and the viability, T/C (second compound 0.0316 µM, first compound 3 µM) was 70.3%. The viability, T/C (second compound 0.1 µM, first compound 0.00949 µM) was 69.9%, the viability, T/C (second compound 0.1 µM, first compound 0.03 µM) was 61.7% and the viability, T/C (second compound 0.1 µM, first compound 0.0949 µM) was 62.5%. For the same compound, the viability, T/C (second compound 0.1 µM, first compound 0.3 µM) was 69.1%, the viability, T/C (second compound 0.1 µM, first compound 0.949 µM) was 70% and the viability, T/C (second compound 0.1 µM, first compound 3 µM) was 68.9%. For the same compound, the viability, T/C (second compound 0.316 µM, first compound 0.00949 µM) was 71.8%, the viability, T/C (second compound 0.316 µM, first compound 0.03 µM) was 60.4% and the viability, T/C (second compound 0.316 µM, first compound 0.0949 µM) was 68%. The viability, T/C (second compound 0.316 µM, first compound 0.3 µM) was 58.1%, the viability, T/C (second compound 0.316 µM, first compound 0.949 µM) was 71.2% and the viability, T/C (second compound 0.316 µM, first compound 3 µM) was 74%. The viability, T/C (second compound 1 µM, first compound 0.00949 µM) was 63.4%, the viability, T/C (second compound 1 µM, first compound 0.03 µM) was 61.5% and the viability, T/C (second compound 1 µM, first compound 0.0949 µM) was 58.6%. The viability, T/C (second compound 1 µM, first compound 0.3 µM) was 63%, the viability, T/C (second compound 1 µM, first compound 0.949 µM) was 70.2% and the viability, T/C (second compound 1 µM, first compound 3 µM) was 69.5%. For the same compound, the viability, T/C (second compound 3.16 µM, first compound 0.00949 µM) was 64.8%, the viability, T/C (second compound 3.16 µM, first compound 0.03 µM) was 66.5% and the viability, T/C (second compound 3.16 µM, first compound 0.0949 µM) was 61.9%. For the same compound, the viability, T/C (second compound 3.16 µM, first compound 0.3 µM) was 60%, the viability, T/C (second compound 3.16 µM, first compound 0.949 µM) was 68.3% and the viability, T/C (second compound 3.16 µM, first compound 3 µM) was 75%. It also gave a viability, T/C (second compound 10 µM, first compound 0.00949 µM) of 67.4%, a viability, T/C (second compound 10 µM, first compound 0.03 µM) of 59.2% and a viability, T/C (second compound 10 µM, first compound 0.0949 µM) of 66.2%. For the same compound, the viability, T/C (second compound 10 µM, first compound 0.3 µM) was 70%, the viability, T/C (second compound 10 µM, first compound 0.949 µM) was 75.3% and the viability, T/C (second compound 10 µM, first compound 3 µM) was 71.8%.
`COc1cc(C2c3cc4c(cc3C(OC3OC5COC(C)OC5C(O)C3O)C3COC(=O)C23)OCO4)cc(OC)c1O` (stereo unspecified) + Nc1ccc(C#CCN(C(=O)Cc2ncc(C(F)(F)F)cc2C(F)(F)F)c2ccc(F)cc2)nn1 gave a pIC50 (second compound 0.0316 µM) of under 5.00, a pIC50 (second compound 0.1 µM) of under 5.00 and a pIC50 (second compound 0.316 µM) of under 5.00. It also gave a pIC50 (second compound 1 µM) of under 5.00, a pIC50 (second compound 3.16 µM) of under 5.00 and a pIC50 (second compound 10 µM) of under 5.00. It also gave a viability, T/C [1] of 107%, a viability, T/C [2] of 86.6% and a viability, T/C [3] of 87.4%. It also gave a viability, T/C [4] of 71%, a viability, T/C [5] of 57.8% and a viability, T/C [6] of 55%. The viability, T/C [7] was 104%, the viability, T/C [8] was 89.4% and the viability, T/C [9] was 82.2%. For the same compound, the viability, T/C [10] was 69.4%, the viability, T/C [11] was 61.1% and the viability, T/C [12] was 53.2%. For the same compound, the viability, T/C [13] was 103%, the viability, T/C [14] was 87.2% and the viability, T/C [15] was 76.1%. For the same compound, the viability, T/C [16] was 66.3%, the viability, T/C [17] was 58.2% and the viability, T/C [18] was 50.6%. The viability, T/C [19] was 89.7%, the viability, T/C [20] was 85.7% and the viability, T/C [21] was 76.9%. It also gave a viability, T/C [22] of 69.6%, a viability, T/C [23] of 53.9% and a viability, T/C [24] of 53.5%. For the same compound, the viability, T/C [25] was 87.8%, the viability, T/C [26] was 87.9% and the viability, T/C [27] was 82.6%. For the same compound, the viability, T/C [28] was 81%, the viability, T/C [29] was 56.1% and the viability, T/C [30] was 50.9%. It also gave a viability, T/C [31] of 95.1%, a viability, T/C [32] of 94.3% and a viability, T/C [33] of 82.4%. It also gave a viability, T/C [34] of 74.1%, a viability, T/C [35] of 62.8% and a viability, T/C [36] of 52.4%.
For `O=c1[nH]cc(F)c(=O)[nH]1` + Nc1ccc(C#CCN(C(=O)Cc2ncc(C(F)(F)F)cc2C(F)(F)F)c2ccc(F)cc2)nn1, the pIC50 (second compound 0.0316 µM) was under 5.00, the pIC50 (second compound 0.1 µM) was under 5.00 and the pIC50 (second compound 0.316 µM) was under 5.00. The pIC50 (second compound 1 µM) was under 5.00, the pIC50 (second compound 3.16 µM) was under 5.00 and the pIC50 (second compound 10 µM) was under 5.00. The viability, T/C [1] was 88.7%, the viability, T/C [2] was 99.5% and the viability, T/C [3] was 93.2%. The viability, T/C [4] was 101%, the viability, T/C [5] was 100% and the viability, T/C [6] was 75.2%. It also gave a viability, T/C [7] of 94%, a viability, T/C [8] of 100% and a viability, T/C [9] of 92.1%. The viability, T/C [10] was 96%, the viability, T/C [11] was 87% and the viability, T/C [12] was 74.9%. The viability, T/C [13] was 100%, the viability, T/C [14] was 98.2% and the viability, T/C [15] was 92.2%. For the same compound, the viability, T/C [16] was 90.9%, the viability, T/C [17] was 89.4% and the viability, T/C [18] was 82.7%. For the same compound, the viability, T/C [19] was 96.9%, the viability, T/C [20] was 88.8% and the viability, T/C [21] was 96%. The viability, T/C [22] was 93.2%, the viability, T/C [23] was 81.3% and the viability, T/C [24] was 71.7%. The viability, T/C [25] was 97.1%, the viability, T/C [26] was 86.4% and the viability, T/C [27] was 86.9%. The viability, T/C [28] was 92.8%, the viability, T/C [29] was 97.5% and the viability, T/C [30] was 71.6%. For the same compound, the viability, T/C [31] was 105%, the viability, T/C [32] was 109% and the viability, T/C [33] was 94%. For the same compound, the viability, T/C [34] was 86.5%, the viability, T/C [35] was 92.8% and the viability, T/C [36] was 81.9%.
